Laboratory results taken from US20150141380A1, “INHIBITORS OF ERK FOR DEVELOPMENTAL DISORDERS OF NEURONAL CONNECTIVITY” (CASE WESTERN RESERVE UNIVERSITY, priority 2010, published 2015).
“Also recorded” adds a separate entry of the source.

How the values were obtained:
FMRI knockout mice = experiment: audiogenic seizure test in FMRI knockout mice (Example 2); assay type: in vivo
Procedure: Male FMRI knockout mice were bred at PsychoGenies and tested at 21 days old. All mice were acclimated to the environment, examined, handled, and weighed prior to initiation of the study to assure adequate health and suitability and to minimize non-specific stress associated with manipulation. During the course of the study, 12/12 light/dark cycles were maintained. The room temperature was maintained between 20 and 23° C. with a relative humidity maintained around 50%. Chow and water were provided ad libitum for the duration of the study. Each mouse was randomly assigned across treatment groups. The testing was performed during the animals' light cycle phase
The following compounds were used.
Mice were individually placed in a Plexiglas chamber and allowed to explore for 15 sec following which they were exposed to a 125 dB tone for 2 minutes, followed by 1 minute of no sound, and then a further 2 minute tone. The mice were scored based on their response, latency, and seizure intensity:
Data were analyzed by analysis of variance (ANOVA) followed by post-hoc comparisons with Fisher Tests when appropriate. An effect was considered significant if p<0.05. Data are presented as the mean±standard error of the mean.

fmr1 knockout mice = experiment: audiogenic seizures in the fmr1 knockout transgenic mouse model of Fragile X syndrome (Example 1); assay type: in vivo
Procedure: Male fmr1 knockout mice were bred and tested at 21 days old. All mice were acclimated to the environment, examined, handled, and weighed prior to initiation of the study to assure adequate health and suitability and to minimize non-specific stress associated with manipulation. During the course of the study, 12/12 light/dark cycles were maintained. The room temperature was maintained between 20 and 23° C. with a relative humidity maintained around 50%. Chow and water were provided ad libitum for the duration of the study. Each mouse was randomly assigned across treatment groups. The testing was performed during the animals' light cycle phase. SL327 (Sigma Aldrich, 400 mg/kg) was dissolved in 5% Tween80 and saline and administered i.p. at a dose volume of 10 ml/kg 30 min prior to test. Mice were individually placed in a Plexiglas chamber and allowed to explore for 15 sec following which they were exposed to a 125 dB tone for 2 minutes, followed by 1 minute of no sound, and then a further 2 minute tone. The mice were scored based on their response, latency, and seizure intensity: […]

[1] = MPEP 30 mg/kg i.p., 30 min prior to testing
[2] = perillyl alcohol 25 mg/kg i.p., 60 min prior to testing
[3] = perillyl alcohol 50 mg/kg i.p., 60 min prior to testing

Cc1cccc(C#Cc2ccccc2)n1.Cl [MPEP]
respiratory distress during testing (FMRI knockout mice; MPEP 30 mg/kg i.p.): no respiratory distress | latency to onset of seizure compared to respective vehicle (FMRI knockout mice; [1]): significantly delayed the onset; also recorded: increased the latency to seizure | latency to respiratory arrest compared to respective vehicle (FMRI knockout mice; [1]): significantly delayed the onset; also recorded: significantly prolonged the latency to respiratory arrest | mean seizure score compared to vehicle (FMRI knockout mice; [1]): attenuated overall seizure score; also recorded: significantly decreased seizure score | latency to respiratory arrest (FMRI knockout mice; MPEP 30 mg/kg i.p., 240 sec given to animals with no response): 240 s | clinical signs or toxicity during pretreatment or testing (FMRI knockout mice; i.p., MPEP HCI 30 mg/kg, perillyl alcohol 25 and 50 mg/kg): No clinical signs or toxicity were observed

N#C/C(=C(/N)Sc1ccc(N)cc1)c1ccccc1C(F)(F)F [SL327, (2Z)-3-amino-3-[(4-aminophenyl)sulfanyl]-2-[2-(trifluoromethyl)phenyl]prop-2-enenitrile]
mean seizure score compared to vehicle (fmr1 knockout mice; SL327 400 mg/kg i.p.): significantly lower seizure score | survival (fmr1 knockout mice; SL327 400 mg/kg i.p.): All mice receiving SL327 survived | survival rate following testing (fmr1 knockout mice; SL327 400 mg/kg i.p.): 100% | audiogenic seizure activity (fmr1 knockout mice; SL327 400 mg/kg i.p. 30 min prior to test, male fmr1 knockout mice, 21 days old, vs Tween80 vehicle, 400 mg/kg): absence of any audiogenic seizure activity; also recorded: completely inhibits all seizure activity; also recorded: seizure activity was completely prevented | latency to seizure onset (fmr1 knockout mice; SL327 400 mg/kg i.p., 240 sec = maximum total time of audiogenic stimulation, given to animals with no response): > 240 s | seizure score (fmr1 knockout mice; SL327 400 mg/kg i.p., scale 0 (no response) to 5 (respiratory arrest)): 0

C=C(C)[C@@H]1CC=C(CO)CC1 [perillyl alcohol, [(4S)-4-(prop-1-en-2-yl)cyclohex-1-en-1-yl]methanol]
latency to onset of seizure compared to respective vehicle (FMRI knockout mice; [2]): significantly delayed the onset; also recorded: increased the latency to seizure | latency to respiratory arrest compared to respective vehicle (FMRI knockout mice; [2]): significantly delayed the onset; also recorded: significantly prolonged the latency to respiratory arrest | mean seizure score compared to vehicle (FMRI knockout mice; [2]): attenuated overall seizure score; also recorded: significantly decreased seizure score | latency to onset of seizure compared to respective vehicle (FMRI knockout mice; [3]): significantly delayed the onset; also recorded: increased the latency to seizure | latency to respiratory arrest compared to respective vehicle (FMRI knockout mice; [3]): significantly delayed the onset; also recorded: significantly prolonged the latency to respiratory arrest | mean seizure score compared to vehicle (FMRI knockout mice; [3]): attenuated overall seizure score; also recorded: significantly decreased seizure score
